PMC5493393 (Journal of medicinal chemistry, 2017)

Legend:
[1] = biological target: T1, KOR (Homo sapiens, UniProt P41145); format: binding; conditions: for LE (Ligand Efficiency): LE = 1.4(−logKi)/N
[2] = biological target: T1, KOR; experiment: KOR-arrestin translocation; format: cell-based; conditions: for agonist activity in β-arrestin recruitment: agonist mode, normalized to Sal A
[3] = biological target: DOR (Homo sapiens, UniProt P41143); experiment: Gi-mediated inhibition of cAMP production at DOR; format: cell-based; conditions: relative to KOR agonist activity; Figure S1
[4] = biological target: MOR (Homo sapiens, UniProt P35372); experiment: Gi-mediated inhibition of cAMP production at MOR; format: cell-based; conditions: relative to KOR agonist activity; Figure S1
[5] = biological target: T1, KOR; experiment: Gi-mediated inhibition of cAMP production; format: cell-based
[6] = test system: KOR M142A mutant; experiment: 3H-U69593 binding at KOR single point mutant M142A; conditions: vs wild type KOR
[7] = test system: KOR H291A mutant; experiment: 3H-U69593 binding at KOR single point mutant H291A; conditions: vs wild type KOR
[8] = test system: KOR I294A mutant; experiment: 3H-U69593 binding at KOR single point mutant I294A; conditions: vs wild type KOR
[9] = inhibition of Sal A mediated Gi activation

SMILES: CC(c1cccc(O)c1)N(C)Cc1nccn1CC(F)(F)F (stereo not drawn) [Compound 28]
- %Inhib ± SEM (inhibition of 3H-U69593 radioligand binding) ([1]; Table 1 VLS hits, 50 μM compound, SEM, N=3): 96.9 ± 1.2%
- agonist activity in β-arrestin recruitment [2]: measurable β-arrestin recruitment activity
- reduction of agonist activity at DOR [3]: at least 50%
- reduction of agonist activity at MOR [4]: at least 50%

SMILES: Oc1cccc(C(O)CNCc2ccc(Cl)cc2Cl)c1 (stereo not drawn) [Compound 64]
- LE (Ligand Efficiency) ([1]; Table 2 derivatives): 0.47 kcal/mol per heavy atom
- antagonist activity: inhibition of Sal A-induced β-arrestin recruitment ([2]; antagonist mode, 30 nM Sal A, normalized to 5-GNTI): completely inhibiting
- functional profile, arrestin versus G-protein assays ([5]; comparison of β-arrestin (Tango) and Gi-cAMP assays): balanced antagonist
- Schild slope [5, 9]: 1.15 ± 0.06
- pA2 (Schild analysis) [5, 9]: 6.78 ± 0.11
- effect of M142A mutation on ligand binding (fold reduction of binding vs WT KOR) [6]: at least 10 fold
- effect of H291A mutation on ligand affinity (fold reduction vs WT KOR) [7]: more than 10 fold
- effect of I294A mutation on ligand affinity (fold reduction vs WT KOR) [8]: more than 10 fold

SMILES: COc1ccc(CNCC(O)c2cccc(O)c2)cc1Br (stereo not drawn) [Compound 67]
- effect of M142A mutation on ligand binding (fold reduction of binding vs WT KOR) [6]: at least 10 fold
- effect of H291A mutation on ligand affinity (fold reduction vs WT KOR) [7]: more than 10 fold
- effect of I294A mutation on ligand affinity (fold reduction vs WT KOR) [8]: more than 10 fold

SMILES: Cc1ccc(C(CNC(=O)c2oc3ccccc3c2C)N2CCCC2)o1 (stereo not drawn) [Compound 69]
- effect of M142A mutation on ligand binding (fold reduction of binding vs WT KOR) [6]: enhancing binding

SMILES: Cc1ccc(C(CNC(=O)c2oc3ccc(F)cc3c2C)N2CCCC2)o1 (stereo not drawn) [Compound 70]
- LE (Ligand Efficiency) ([1]; Table 2 derivatives): 0.32 kcal/mol per heavy atom
- effect of M142A mutation on ligand binding (fold reduction of binding vs WT KOR) [6]: enhancing binding

SMILES: O=C(NC[C@@H](c1ccco1)N1CCCC1)c1cc2ccccc2o1 [Compound 71]
- LE (Ligand Efficiency) ([1]; Table 2 derivatives): 0.35 kcal/mol per heavy atom

SMILES: Cc1c(C(=O)NCC(c2ccco2)N2CCCC2)oc2ccc(Cl)cc12 (stereo not drawn) [Compound 72]
- effect of M142A mutation on ligand binding (fold reduction of binding vs WT KOR) [6]: enhancing binding

SMILES: COc1ccc2oc(C(=O)NCC(c3ccco3)N3CCCC3)c(C)c2c1 (stereo not drawn) [Compound 73]
- LE (Ligand Efficiency) ([1]; Table 2 derivatives): 0.32 kcal/mol per heavy atom

SMILES: CC(NCc1nccn1C)c1cccc(O)c1 (stereo not drawn) [Compound 81]
- %Inhib (inhibition of 3H-U69593 radioligand binding) ([1]; Table 2 derivatives, 50 μM compound, N=3): 78.81%
- agonist activity in β-arrestin recruitment [2]: minimal β-arrestin recruitment
- reduction of agonist activity at DOR [3]: ≥ 70%
- reduction of agonist activity at MOR [4]: ≥ 70%

SMILES: CCN(Cc1csc(C)n1)C(C)c1cccc(O)c1 (stereo not drawn) [Compound 87]
- effect of H291A mutation on ligand affinity (fold reduction vs WT KOR) [7]: more than 10 fold
- effect of I294A mutation on ligand affinity (fold reduction vs WT KOR) [8]: more than 10 fold

SMILES: COC(=O)[C@@H]1C[C@H](OC(C)=O)C(=O)[C@H]2[C@@]1(C)CC[C@H]1C(=O)O[C@H](c3ccoc3)C[C@]21C [Sal A, salvinorin A, reference compound]
- effect of M142A mutation on ligand binding (fold reduction of binding vs WT KOR) [6]: at least 10 fold
- effect of H291A mutation on ligand affinity (fold reduction vs WT KOR) [7]: not affecting binding
- effect of I294A mutation on ligand affinity (fold reduction vs WT KOR) [8]: not affecting binding
